US20210189342A1, “COMPOSITIONS AND METHODS FOR MODULATING MONOCYTE AND MACROPHAGE INFLAMMATORY PHENOTYPES AND IMMUNOTHERAPY USES THEREOF” (Verseau Therapeutics, Inc., priority 2018, published 2021)

These substances were tested on CD37 (assay: siRNA dose response, CD37 mRNA knockdown, bDNA Assay). Conditions: THP-1, 24 hr.
Format: cell-based, human
Method: (§1) Dose response curves for siRNAs were generated in vitro using a variety of cell lines according to Table 4.
(§2) Briefly, cells were seeded in 96-well plates and reverse transfected with siRNA, Lipofectamine® 2000 (0.5 uL/well; ThermoFisher), and, in some cases, a reporter plasmid (50 ng/well). The reporter plasmid (psiCHECK™-2, Promega) encoded both firefly luciferase and the gene of interest fused to renilla luciferase; silencing of the gene of interest results in proportional silencing of renilla luciferase but leaves firefly luciferase unaffected as an internal control.
(§3) After 24 hr incubation at 37° C., mRNA knockdown was measured using an endpoint assay. For targets without a reporter plasmid, a branched DNA (bDNA) assay was performed according to the manufacturer's instructions (QuantiGene® Singleplex Gene Expression Assay, ThermoFisher) to measure both the target gene and GAPDH (housekeeping gene) mRNA. Data are plotted as siRNA concentration (nM) vs. remaining mRNA (ratio of target gene to GAPDH, normalized to mock siRNA-transfected cells). For targets with a reporter plasmid, a Dual-Glo® Luciferase Assay was performed according to the manufacturer's instructions (Promega) to measure firefly and renilla luciferase expression. Data are plotted as siRNA concentration (nM) vs. remaining mRNA (ratio of renilla to firefly luminescence, normalized to mock siRNA-transfected cells).
(§4) For all dose response curves, a 4-parameter logistic model was applied to determine the IC50 of each siRNA sequence (Table 5 and FIG. 2). Data shown in Table 5 and FIG. 2 represent the mean of quadruplicates, +/−standard deviation.
“XD-09773: siRNA targeting CD37 (sense 5'-cgAccAAcGAcuccAcAAudTsdT-3'; antisense 5'-AUUGUGGAGUCGUUGGUCGdTsdT-3'; RNA with 2'-O-methyl and phosphorothioate modifications, case key not given here, as printed in the source, key not given here)” showed an IC50 of 0.311 nM.
With “XD-09774: siRNA targeting CD37 (sense 5'-ccAAcGAcuccAcaAuccudTsdT-3'; antisense 5'-AGGAUUGUGGAGUCGUUGGdTsdT-3'; RNA with 2'-O-methyl and phosphorothioate modifications, case key not given here, as printed in the source, key not given here)” the IC50 was 0.129 nM.
In the case of “XD-09775: siRNA targeting CD37 (sense 5'-ccAcAAuccuAGAuAAGGudTsdT-3'; antisense 5'-ACCUuAUCuAGGAUUGUGGdTsdT-3'; RNA with 2'-O-methyl and phosphorothioate modifications, case key not given here, as printed in the source, key not given here)”, the IC50 is reported as 1.6 nM.
For “XD-09776: siRNA targeting CD37 (sense 5'-ggcuGcAcAAcAAccuuAudTsdT-3'; antisense 5'-AuAAGGUUGUUGUGcAGCCdTsdT-3'; RNA with 2'-O-methyl and phosphorothioate modifications, case key not given here, as printed in the source, key not given here)”, the IC50 was 1.32 nM.
Substance “XD-09777: siRNA targeting CD37 (sense 5'-guucAuGAcGcucucGAuAdTsdT-3'; antisense 5'-uAUCGAGAGCGUcAUGAACdTsdT-3'; RNA with 2'-O-methyl and phosphorothioate modifications, case key not given here, as printed in the source, key not given here)” has an IC50 of 0.414 nM.
Work on “XD-09778: siRNA targeting CD37 (sense 5'-cgGcucGcucGAuaccGuudTsdT-3'; antisense 5'-AACGGuAUCGAGCGAGCCGdTsdT-3'; RNA with 2'-O-methyl and phosphorothioate modifications, case key not given here, as printed in the source, key not given here)” yielded an IC50 of 11.4 nM.
With “XD-09779: siRNA targeting CD37 (sense 5'-accAcccAcAAGAuuAuuudTsdT-3'; antisense 5'-AAAuAAUCUUGUGGGUGGUdTsdT-3'; RNA with 2'-O-methyl and phosphorothioate modifications, case key not given here, as printed in the source, key not given here)” the IC50 was < 0.005 nM.

These substances were tested on EVI2B (assay: siRNA dose response, EVI2B mRNA knockdown, bDNA Assay). Conditions: A172, 24 hr.
Format: cell-based, human
Method: as §1, §2, §3, §4
“XD-10481: siRNA targeting EVI2B (sense 5'-cuuuGGGucAAccaAcAcAdTsdT-3'; antisense 5'-UGUGUUGGUUGACCcAAAGdTsdT-3'; RNA with 2'-O-methyl and phosphorothioate modifications, case key not given here, as printed in the source, key not given here)” gave an IC50 of 0.169 nM.
“XD-10482: siRNA targeting EVI2B (sense 5'-caAccAAcAccAAuAGccAdTsdT-3'; antisense 5'-UGGCuAUUGGUGUUGGUUGdTsdT-3'; RNA with 2'-O-methyl and phosphorothioate modifications, case key not given here, as printed in the source, key not given here)” was tested, and the IC50 was 0.017 nM.
“XD-10483: siRNA targeting EVI2B (sense 5'-ccAucuGcccGuAcuucuAdTsdT-3'; antisense 5'-uAGAAGuACGGGcAGAUGGdTsdT-3'; RNA with 2'-O-methyl and phosphorothioate modifications, case key not given here, as printed in the source, key not given here)” gave an IC50 of 3.27 nM.
“XD-10484: siRNA targeting EVI2B (sense 5'-ccAccAAAGucAuuuGucudTsdT-3'; antisense 5'-AGAcAAAUGACUUUGGUGGdTsdT-3'; RNA with 2'-O-methyl and phosphorothioate modifications, case key not given here, as printed in the source, key not given here)” gave an IC50 of 0.014 nM.
Substance “XD-10485: siRNA targeting EVI2B (sense 5'-gucAAAAAuucAccuAGGAdTsdT-3'; antisense 5'-UCCuAGGUGAAUUUUUGACdTsdT-3'; RNA with 2'-O-methyl and phosphorothioate modifications, case key not given here, as printed in the source, key not given here)” has an IC50 of 1.38 nM.
With “XD-10486: siRNA targeting EVI2B (sense 5'-ggAuuuAucuuAGauAcuAdTsdT-3'; antisense 5'-uAGuAUCuAAGAuAAAUCCdTsdT-3'; RNA with 2'-O-methyl and phosphorothioate modifications, case key not given here, as printed in the source, key not given here)” the IC50 was 0.225 nM.
For “XD-10487: siRNA targeting EVI2B (sense 5'-cauAcuAAuuGGuguAcuudTsdT-3'; antisense 5'-AAGuAcACcAAUuAGuAUGdTsdT-3'; RNA with 2'-O-methyl and phosphorothioate modifications, case key not given here, as printed in the source, key not given here)”, the IC50 was 0.156 nM.
For “XD-10488: siRNA targeting EVI2B (sense 5'-agcuAuAAucAucauuGuAdTsdT-3'; antisense 5'-uAcAAUGAUGAUuAuAGCUdTsdT-3'; RNA with 2'-O-methyl and phosphorothioate modifications, case key not given here, as printed in the source, key not given here)”, the IC50 was 2.55 nM.
With “XD-10489: siRNA targeting EVI2B (sense 5'-cucccAAcucuGAucAAGAdTsdT-3'; antisense 5'-UCUUGAUcAGAGUUGGGAGdTsdT-3'; RNA with 2'-O-methyl and phosphorothioate modifications, case key not given here, as printed in the source, key not given here)” the IC50 was 0.013 nM.

These substances were tested on TBXAS1 (assay: siRNA dose response, TBXAS1 mRNA knockdown, bDNA Assay). Conditions: A549, 24 hr.
Format: cell-based, human
Method: as §1, §2, §3, §4
Substance “XD-10490: siRNA targeting TBXAS1 (sense 5'-gccGAcAGcGuucuGuuuudTsdT-3'; antisense 5'-AAAAcAGAACGCUGUCGGCdTsdT-3'; RNA with 2'-O-methyl and phosphorothioate modifications, case key not given here, as printed in the source, key not given here)” has an IC50 of 0.573 nM.
“XD-10491: siRNA targeting TBXAS1 (sense 5'-cuGcAAGcGuuucuucGAAdTsdT-3'; antisense 5'-UUCGAAGAAACGCUUGcAGdTsdT-3'; RNA with 2'-O-methyl and phosphorothioate modifications, case key not given here, as printed in the source, key not given here)” showed an IC50 of 0.048 nM.
“XD-10492: siRNA targeting TBXAS1 (sense 5'-gcccGGAuuuuGcccAAuAdTsdT-3'; antisense 5'-uAUUGGGcAAAAUCCGGGCdTsdT-3'; RNA with 2'-O-methyl and phosphorothioate modifications, case key not given here, as printed in the source, key not given here)” gave an IC50 of 1.44 nM.
Substance “XD-10493: siRNA targeting TBXAS1 (sense 5'-ggAuuuuGcccAAuAAGAAdTsdT-3'; antisense 5'-UUCUuAUUGGGcAAAAUCCdTsdT-3'; RNA with 2'-O-methyl and phosphorothioate modifications, case key not given here, as printed in the source, key not given here)” has an IC50 of 0.239 nM.
Work on “XD-10494: siRNA targeting TBXAS1 (sense 5'-caAuAAGAAccGAgAcGAAdTsdT-3'; antisense 5'-UUCGUCUCGGUUCUuAUUGdTsdT-3'; RNA with 2'-O-methyl and phosphorothioate modifications, case key not given here, as printed in the source, key not given here)” yielded an IC50 of 0.049 nM.
“XD-10495: siRNA targeting TBXAS1 (sense 5'-gaAccGAGAcGAAcuGAAudTsdT-3'; antisense 5'-AUUcAGUUCGUCUCGGUUCdTsdT-3'; RNA with 2'-O-methyl and phosphorothioate modifications, case key not given here, as printed in the source, key not given here)” gave an IC50 of 0.125 nM.
For “XD-10496: siRNA targeting TBXAS1 (sense 5'-agAcGAAcuGAAugGcuuudTsdT-3'; antisense 5'-AAAGCcAUUcAGUUCGUCUdTsdT-3'; as printed in the source, key not given here)”, the IC50 was 0.061 nM.
